The subject of one series is LRSA 20-1. Nature of the series: microbe, parasite or virus in culture. Type of series: cell-based, Staphylococcus aureus. The following applies: 20 h. As to the method:
(§1) For MIC determination, Staphylococcus aureus ATCC25923, Bacillus subtilis 168, Micrococcus luteus DSM1790, Enterococcus faecalis OG1RF, Enterococcus faecium MCC2763, Escherichia coli DH5α and Pseudomonas aeruginosa PAO1 were used as indicator strains. Nisin and vancomycin were used as positive controls. A dilution series of massatide A, massatide B, vancomycin (16, 8, 4, 2, 1, 0.5, 0.25, 0.125, 0.0625, 0.0313 μg/mL) and sistertide A1, kebanetide A1, kebanetide A2, nisin (64, 32, 16, 8, 4, 2, 1, 0.5, 0.25, 0.125 μg/mL) were prepared in 96-well plate from 1–10th column. The indicator strains were added to the compound-containing well. The indicator strain culture with no antibiotics was prepared in the 11th column. The 12th column was filled with 200 μL empty MHB medium. The 96-well plate was incubated at 37 °C for 20 h (30 °C for M. luteus and B. subtilis). The OD600 was detected on MULTISKAN Sky (Thermo Scientific) and MIC values were determined. The MIC values of clinical isolates were determined by Sichuan Primed Shines Bio-tech Co., Ltd. (China) following similar protocol. Levofloxacin was used as a positive control.

For the next series, the system named is MRSA 15-1. Kind of series: microbe, parasite or virus in culture. It is filed as cell-based, Staphylococcus aureus. The following applies: 15-1, 20 h. Here is the method: as §1
The subject of another series is MRSA ATCC33591. Nature of the series: microbe, parasite or virus in culture. The following applies: ATCC33591, 20 h. It is filed as cell-based, Staphylococcus aureus. As to the method:
as §1

For another series, the system named is MRSA ATCC43300. Nature of the series: microbe, parasite or virus in culture. It is filed as cell-based, Staphylococcus aureus. The following applies: ATCC43300, 20 h. Here is the method:
as §1

The subject of the next series is VMSA ATCC700699. Kind of series: microbe, parasite or virus in culture. It is filed as cell-based, Staphylococcus aureus. The following applies: ATCC700699, 20 h. Here is the method: as §1
The next series relates to VMSA ATCC700788. Kind of series: microbe, parasite or virus in culture. It is filed as cell-based, Staphylococcus aureus. The following applies: ATCC700788, 20 h. Here is the method: as §1
Another series concerns LREfa 20-1. Kind of series: microbe, parasite or virus in culture. Type of series: cell-based, Enterococcus faecalis. The following applies: 20 h. As to the method: as §1
Another series has as its system VREfa ATCC51575. Kind of series: microbe, parasite or virus in culture. It is filed as cell-based, Enterococcus faecalis. The following applies: ATCC51575, 20 h. Here is the method:
as §1

The test system of series [1] is Micrococcus luteus DSM1790. Nature of the series: Kirby-Bauer assay, zone of inhibition (agar well). Type of series: cell-based. The following applies: M. luteus DSM1790; 10 μL DMSO stock (3.2 or 1.6 mg/mL) in well of soft LB agar, 30 °C, 20 h. As to the method:
(§2) The stock solution of massatide A (1) and B (1a) 3.2 mg/mL were prepared in DMSO. 40 μL overnight culture of Micrococcus luteus DSM1790 was added to 20 mL soft Luria-Bertani agar (1% agar), and then poured into a plate. 10 μL tip was used to make two wells on the plate. 10 μL massatide A (1) or B (1a) solution was added in one of the wells, while in the other well, 10 μL DMSO was added as a negative control. The plates were incubated at 30 °C for 20 h to observe the zone of inhibition. Staphylococcus aureus ATCC25923 was also used to observe the inhibition zone using a similar method. The only difference is incubating at 37 °C. Stock solutions of sistertide A1, kebanetide A1 and A2 were 3.2 mg/mL, 1.6 mg/mL and 1.6 mg/mL, respectively. The method to observe the activity of these compounds individually was the same as that of massatide.

The subject of series [2] is Staphylococcus aureus ATCC25923. Kind of series: Kirby-Bauer assay, zone of inhibition (agar well). It is filed as cell-based. The following applies: S. aureus ATCC25923; 10 μL of 3.2 mg/mL DMSO stock in well of soft LB agar, 37 °C, 20 h. As to the method:
as §2

Series [3] is described as follows: Thermal stability of massatide A. Here is the method: Thermal stability of massatide A
A solution of Massatide A (3.2 mg/mL) was prepared in 1.5 mL Eppendorf tube. These
tubes were then incubated at 50 °C and 70 °C in a dry bath for 72 hours. After incubation,
1 μ L samples were taken and diluted with water for UPLC -LRMS analysis. […]

A further series concerns S. aureus ATCC259923. Nature of the series: UDP-N-acetyl-muramic acid pentapeptide levels (HPLC-HRMS). It is filed as cell-based, Staphylococcus aureus. The following applies: S. aureus treated with or without massatide A, comparative HPLC-HRMS, preliminary unpublished data. From the text: page 26: “Also, there is no discussion about the possible mechanism of antibacterial activity.” We have included a discussion on the proposed mode of action of […] A in the discussion section in lines 388-394 of our manuscript. “Avi(Me)Cys-containing lanthipeptides are reported to target lipid II, an essential precursor in cell wall biosynthesis. […], which shares structural similarities with cacaoidin, may potentially target lipid II or certain membrane proteins involved in peptidoglycan biosynthesis. However, a comprehensive study is necessary to fully uncover the detailed mode of action of […] A, which will be the primary focus of our ongoing research.” In our ongoing study, we have obtained some preliminary unpublished data supporting our hypothesis that […] A may inhibit cell wall biosynthesis. We assessed UDP-N-acetyl-muramic acid pentapeptide levels, an essential precursor in cell wall biosynthesis, in the S. aureus ATCC259923 strain treated with or without […] The mode of action of […] A will be further investigated in our ongoing research. […] 12. p. 16: the data that […] A1 and A2 act synergistically are not convincing - see also main comment above. […] We acknowledge the concern regarding the insufficient evidence supporting the presence of a synergistic effect in our study. As a result, we have opted to remove any conclusions relating to synergy. […]

The subject of series [4] is tested gram-positive pathogens, including vancomycin intermediate-resistant strains. It is filed as cell-based. The following applies: 20 h. The essentials: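 Broth microdilution in MHB, run for these clinical isolates by an external lab with a similar protocol: twofold dilutions (16–0.0313 μg/mL for massatides; 64–0.125 μg/mL for sistertide A1, kebanetides), 37 °C for 20 h, growth read as OD600 to give the MIC. Levofloxacin served as positive control.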

For series [5] the following is noted: 300 μl of water added to 0.9 mg solid; visual, not quantitative.

SMILES strings stand for the structures. Values after ≈ are worked out from the molar mass of the structure shown.

For `C/C=C1\NC(=O)C(N(C)C)C(C)SC[C@@H](C(=O)N[C@H](CC)C(=O)N[C@H](C(=O)N[C@@H](C)C(=O)N[C@H](C)C(=O)N[C@@H](Cc2ccccc2)C(=O)N[C@@H](C)C(=O)NC2C(=O)NCC(=O)N[C@@H](Cc3ccc(O)cc3)C(=O)N[C@@H](Cc3ccccc3)C(=O)N[C@H](C)C(=O)N/C=C\SC2C)C(C)C)NC(=O)[C@@H]2CCCN2C(=O)[C@H](C(C)C)NC1=O` (stereo partly shown) [Massatide A (1), massatide A], the MIC against LRSA 20-1 worked out at 0.25 µg/mL (≈ 0.153 µM); against MRSA 15-1, 2 µg/mL (≈ 1.22 µM); in the series on MRSA ATCC33591 it was 1 µg/mL (≈ 0.612 µM); in the series with MRSA ATCC43300 it was 0.25 µg/mL (≈ 0.153 µM); against VMSA ATCC700699, 4 µg/mL (≈ 2.45 µM); in the series with VMSA ATCC700788, 4 µg/mL (≈ 2.45 µM). Also, the MIC in the series with LREfa 20-1 and in the series on VREfa ATCC51575 was 4 µg/mL (≈ 2.45 µM) each time. Also, the “inhibitory activity (zone of inhibition)” value in series [1] and in series [2] was “strong inhibitory activity” each time. Moreover, in [3] (3.2 mg/mL, 50 °C and 70 °C, dry bath, 72 hours, UPLC-LRMS), the “stability under high temperatures” value is reported as “highly stable”. The “changes in retention time or m/z after incubation” value in series [3] (72 h incubation under 70 ℃, 3.2 mg/mL, UPLC-LRMS) was “No changes”. Moreover, in series [3] (time-course activity analysis, incubation at 50 ℃ and 70 ℃ up to 72 h), the “changes in bioactivity after incubation” value is given as “no obvious changes”. Besides, in the series with S. aureus ATCC259923, the “UDP-N-acetyl-muramic acid pentapeptide levels” value is given as “increased levels”. Also, in series [4], the “MIC (potency) against tested gram-positive pathogens” value is “below 4 μg/mL”. For the same molecule, the “water solubility (observation)” value in series [5] is given as “not fully dissolved”.
